Results as given in ChEMBL document CHEMBL1122862, “Synthesis and antibacterial activity of 2,2'-dithiobis(benzamide) derivatives against Mycobacterium species” (1985).
In brackets after ≈: the same amount, converted by molar mass.

Columns and labels:
Format in all cases: functional
Mycobacterium kansasii = test: Antibacterial activity against Mycobacterium kansasii
[1] = tested on: Mycobacterium intracellulare; test: Antibacterial activity against Mycobacterium intracellular.
[2] = tested on: Mycobacterium tuberculosis; test: Antibacterial activity against Mycobacterium tuberculosis H37Rv.

SMILES | MIC (Mycobacterium kansasii) [µg/mL] | MIC [1] [µg/mL] | MIC [2] [µg/mL]
CCCCN(CCCC)C(=O)c1ccccc1SSc1ccccc1C(=O)N(CCCC)CCCC | 25 (≈ 47.3 µM) | 25 (≈ 47.3 µM) | 6.25 (≈ 11.8 µM)
COC(CNC(=O)c1ccccc1SSc1ccccc1C(=O)NCC(OC)OC)OC | 12.5 (≈ 26 µM) | 12.5 (≈ 26 µM) | 3.13 (≈ 6.51 µM)
O=C(Nc1ccc(Cl)c2ccccc12)c1ccccc1SSc1ccccc1C(=O)Nc1ccc(Cl)c2ccccc12 | 50 (≈ 79.9 µM) | > 100 | 12.5 (≈ 20 µM)
CCCC(=O)OCCCNC(=O)c1ccccc1SSc1ccccc1C(=O)NCCCOC(=O)CCC | 6.25 (≈ 11.1 µM) | 25 (≈ 44.6 µM) | 6.25 (≈ 11.1 µM)
NC(=O)c1ccccc1SSc1ccccc1C(N)=O | 25 (≈ 82.1 µM) | 25 (≈ 82.1 µM) | 12.5 (≈ 41.1 µM)
CC(O)CNC(=O)c1ccc(SSc2ccc(C(=O)NCC(C)O)cc2)cc1 (centres undefined) | > 100 | > 100 | 100 (≈ 238 µM)
O=C(c1ccccc1SSc1ccccc1C(=O)N(c1ccccc1)c1ccccc1)N(c1ccccc1)c1ccccc1 | > 100 | > 100 | > 100
NC[C@H]1O[C@H](O[C@H]2[C@H](O)[C@@H](O[C@H]3O[C@H](CO)[C@@H](O)[C@H](N)[C@H]3O)[C@H](N)C[C@@H]2N)[C@H](O)[C@@H](O)[C@@H]1O [KANAMYCIN] | 25 (≈ 51.6 µM) | 6.25 (≈ 12.9 µM) | 3.13 (≈ 6.46 µM)
CC(=O)OCCCNC(=O)c1ccccc1SSc1ccccc1C(=O)NCCCOC(C)=O | 25 (≈ 49.5 µM) | 25 (≈ 49.5 µM) | 12.5 (≈ 24.8 µM)
CCCCCCCCCCCC(=O)OCCCNC(=O)c1ccccc1SSc1ccccc1C(=O)NCCCOC(=O)CCCCCCCCCCC | 12.5 (≈ 15.9 µM) | > 100 | 0.78 (≈ 0.993 µM)
CCCCCCCCCCNC(=O)c1ccccc1SSc1ccccc1C(=O)NCCCCCCCCCC | 12.5 (≈ 21.4 µM) | 25 (≈ 42.7 µM) | 12.5 (≈ 21.4 µM)
O=C(c1ccccc1SSc1ccccc1C(=O)n1nnc2ccccc21)n1nnc2ccccc21 | > 100 | > 100 | > 100
CO[C@H]1/C=C/O[C@@]2(C)Oc3c(C)c(O)c4c(O)c(c(/C=N/N5CCN(C)CC5)c(O)c4c3C2=O)NC(=O)/C(C)=C\C=C\[C@H](C)[C@H](O)[C@@H](C)[C@@H](O)[C@@H](C)[C@H](OC(C)=O)[C@@H]1C [RIFAMPIN] | 0.05 (≈ 0.0608 µM) | 0.2 (≈ 0.243 µM) | 0.05 (≈ 0.0608 µM)
O=C(c1ccccc1SSc1ccccc1C(=O)N1CCN(C/C=C/c2ccccc2)CC1)N1CCN(C/C=C/c2ccccc2)CC1 | > 100 | > 100 | 100 (≈ 148 µM)
CCC(O)CNC(=O)c1ccccc1SSc1ccccc1C(=O)NCC(O)CC (centres undefined) | 12.5 (≈ 27.9 µM) | 12.5 (≈ 27.9 µM) | 12.5 (≈ 27.9 µM)
NNC(=O)c1ccncc1 [ISONIAZID] | 1.56 (≈ 11.4 µM) | 6.25 (≈ 45.6 µM) | 0.05 (≈ 0.365 µM)
O=C(NCC(O)c1ccc(O)c(O)c1)c1ccccc1SSc1ccccc1C(=O)NCC(O)c1ccc(O)c(O)c1 (centres undefined) | > 100 | > 100 | 100 (≈ 164 µM)
CCCCCCCCCCCCCCCCCCCC(=O)OCCCNC(=O)c1ccccc1SSc1ccccc1C(=O)NCCCOC(=O)CCCCCCCCCCCCCCCCCCC | > 100 | > 100 | > 100
